Test results as given in the NIST ThermoML archive (doi:10.1016/j.jct.2017.09.022).
± gives the expanded uncertainty stated by the source.

Experiment: molar heat capacity at constant pressure
Settings: 101.33 kPa, Crystal, Small (less than 1 g) adiabatic calorimetry

C[C@@H](O)[C@H](N)C(=O)O [L-threonine]
Settings | molar heat capacity at constant pressure [J/K/mol]
145.26 K | 88.8 ± 0.67
146.21 K | 89.13 ± 0.67
147.15 K | 89.63 ± 0.67
148.1 K | 90.13 ± 0.67
149.05 K | 90.63 ± 0.67
150 K | 90.96 ± 0.67
150.93 K | 91.38 ± 0.67
151.88 K | 91.87 ± 0.67
152.83 K | 92.21 ± 0.67
153.78 K | 92.79 ± 0.67
154.71 K | 93.21 ± 0.67
155.66 K | 93.7 ± 0.67
156.61 K | 94.2 ± 0.67
157.55 K | 94.54 ± 0.67
158.5 K | 94.87 ± 0.67
159.44 K | 95.37 ± 0.67
160 K | 95.62 ± 0.67
160.38 K | 95.7 ± 0.75
161.33 K | 96.12 ± 0.75
162.27 K | 96.7 ± 0.75
163.21 K | 97.03 ± 0.75
164.16 K | 97.53 ± 0.75
165.1 K | 98.03 ± 0.75
166.02 K | 98.36 ± 0.75
166.96 K | 98.78 ± 0.75
167.9 K | 99.11 ± 0.75
168.84 K | 99.69 ± 0.75
169.78 K | 100.02 ± 0.75
170 K | 100.19 ± 0.83
170.72 K | 100.44 ± 0.75
171.66 K | 100.85 ± 0.75
172.6 K | 101.27 ± 0.75
173.54 K | 101.6 ± 0.75
174.48 K | 102.1 ± 0.75
175.42 K | 102.6 ± 0.75
176.34 K | 103.02 ± 0.75
177.28 K | 103.43 ± 0.75
178.21 K | 103.76 ± 0.75
179.15 K | 104.35 ± 0.75
180 K | 104.6 ± 0.83
180.08 K | 104.6 ± 0.75
180.99 K | 104.93 ± 0.75
181.93 K | 105.34 ± 0.75
182.86 K | 105.84 ± 0.75
183.79 K | 106.34 ± 0.75
184.73 K | 106.67 ± 0.75
185.66 K | 107.09 ± 0.75
186.59 K | 107.51 ± 0.75
187.52 K | 107.92 ± 0.75
188.45 K | 108.25 ± 0.83
189.38 K | 108.75 ± 0.83
190 K | 109 ± 0.83
190.32 K | 109.09 ± 0.83
191.25 K | 109.5 ± 0.83
192.18 K | 110 ± 0.83
193.1 K | 110.25 ± 0.83
194.03 K | 110.67 ± 0.83
194.96 K | 111.08 ± 0.83
195.86 K | 111.5 ± 0.83
196.79 K | 111.83 ± 0.83
197.72 K | 112.33 ± 0.83
198.65 K | 112.66 ± 0.83
199.57 K | 112.99 ± 0.83
200 K | 113.33 ± 0.83
200.62 K | 113.49 ± 0.83
201.78 K | 114.07 ± 0.83
202.93 K | 114.57 ± 0.83
204.09 K | 115.07 ± 0.83
205.25 K | 115.65 ± 0.83
206.41 K | 116.15 ± 0.83
207.57 K | 116.57 ± 0.83
208.73 K | 117.07 ± 0.83
209.9 K | 117.57 ± 0.83
210 K | 117.57 ± 0.83
211.06 K | 118.07 ± 0.83
212.23 K | 118.65 ± 0.83
213.35 K | 119.06 ± 0.83
214.52 K | 119.56 ± 0.83
215.69 K | 119.98 ± 0.83
216.86 K | 120.48 ± 0.83
218.03 K | 120.89 ± 0.83
219.2 K | 121.47 ± 0.91
220 K | 121.81 ± 0.83
220.37 K | 121.97 ± 0.91
221.54 K | 122.56 ± 0.91
222.71 K | 122.97 ± 0.91
223.89 K | 123.47 ± 0.91
225.06 K | 123.97 ± 0.91
226.24 K | 124.55 ± 0.91
227.41 K | 125.05 ± 0.91
228.59 K | 125.47 ± 0.91
229.77 K | 125.96 ± 0.91
230 K | 126.13 ± 1
230.95 K | 126.38 ± 0.91
232.1 K | 126.96 ± 0.91
233.28 K | 127.54 ± 0.91
234.46 K | 128.29 ± 0.91
235.64 K | 128.62 ± 0.91
236.82 K | 129.04 ± 0.91
238 K | 129.62 ± 0.91
239.18 K | 130.04 ± 0.91
240 K | 130.37 ± 1
240.37 K | 130.54 ± 0.91
241.55 K | 131.04 ± 0.91
242.74 K | 131.45 ± 0.91
243.92 K | 132.03 ± 0.91
245.11 K | 132.53 ± 0.91
246.3 K | 132.95 ± 0.91
247.49 K | 133.61 ± 1
248.68 K | 134.03 ± 1
249.87 K | 134.53 ± 1
250 K | 134.69 ± 1
251.05 K | 134.94 ± 1
252.25 K | 135.36 ± 1
253.44 K | 135.86 ± 1
254.64 K | 136.69 ± 1
255.83 K | 137.11 ± 1
257.02 K | 137.94 ± 1
258.22 K | 138.44 ± 1
259.42 K | 138.77 ± 1
260 K | 138.93 ± 1
260.62 K | 139.27 ± 1
261.82 K | 139.85 ± 1
263.02 K | 140.35 ± 1
264.22 K | 140.68 ± 1
265.42 K | 141.43 ± 1
266.63 K | 142.01 ± 1
267.84 K | 142.43 ± 1
269.05 K | 142.93 ± 1
270 K | 143.26 ± 1
270.25 K | 143.34 ± 1
271.46 K | 144.09 ± 1
272.67 K | 144.42 ± 1
273.88 K | 145.17 ± 1
275.09 K | 145.5 ± 1
276.3 K | 145.92 ± 1
277.52 K | 146.42 ± 1.1
278.73 K | 146.83 ± 1.1
279.95 K | 147.5 ± 1.1
280 K | 147.58 ± 1
281.17 K | 147.91 ± 1.1
282.39 K | 148.5 ± 1.1
283.61 K | 149 ± 1.1
284.84 K | 149.49 ± 1.1
286.06 K | 149.99 ± 1.1
287.29 K | 150.57 ± 1.1
288.48 K | 151.16 ± 1.1
289.71 K | 151.74 ± 1.1
290 K | 151.82 ± 1
290.94 K | 152.24 ± 1.1
292.17 K | 152.65 ± 1.1
293.4 K | 153.57 ± 1.1
294.63 K | 153.65 ± 1.1
295.86 K | 154.4 ± 1.1
297.1 K | 154.82 ± 1.1
298.15 K | 155.31 ± 1.2
298.33 K | 155.4 ± 1.1
299.57 K | 155.98 ± 1.1
300 K | 155.98 ± 1.2
301.28 K | 156.31 ± 1.1
303.43 K | 157.14 ± 1.1
305.56 K | 157.97 ± 1.1
307.69 K | 158.56 ± 1.1
309.8 K | 159.55 ± 1.2
310 K | 159.55 ± 1.2
311.9 K | 160.3 ± 1.2
313.99 K | 161.13 ± 1.2
316.05 K | 161.88 ± 1.2
318.12 K | 162.8 ± 1.2
320 K | 163.46 ± 1.2
320.16 K | 163.55 ± 1.2
322.2 K | 164.21 ± 1.2
324.22 K | 164.88 ± 1.2
326.23 K | 165.71 ± 1.2
328.22 K | 166.29 ± 1.2
330 K | 166.87 ± 1.2
330.18 K | 166.95 ± 1.2
332.14 K | 167.54 ± 1.2
333.96 K | 168.2 ± 1.2
335.89 K | 168.95 ± 1.2
337.81 K | 169.7 ± 1.2
339.72 K | 170.36 ± 1.2
340 K | 170.61 ± 1.2
341.6 K | 171.28 ± 1.2
343.43 K | 172.36 ± 1.2
345.28 K | 172.77 ± 1.2
347.12 K | 173.69 ± 1.2
348.93 K | 174.44 ± 1.2
350 K | 174.94 ± 1.2
350.73 K | 175.19 ± 1.2
352.45 K | 175.85 ± 1.2
354.22 K | 176.68 ± 1.2
355.96 K | 177.35 ± 1.2
357.68 K | 177.93 ± 1.2
359.39 K | 178.59 ± 1.2
360 K | 178.76 ± 1.2
361.08 K | 179.26 ± 1.2
362.43 K | 179.59 ± 1.2
364.01 K | 180.17 ± 1.2
365.64 K | 180.84 ± 1.2
367.26 K | 181.17 ± 1.2
368.85 K | 181.84 ± 1.2
370 K | 182.25 ± 1.3
370.42 K | 182.5 ± 1.2
371.97 K | 182.83 ± 1.2
